The source of these data is PMC6161179, “Looking for Novel Capsid Protein Multimerization Inhibitors of Feline Immunodeficiency Virus” (Pharmaceuticals, 2018).

Like-named read-outs stand apart in the source and are kept apart here.

Data set [1] deals with T1, FIV CA (p24) (Feline immunodeficiency virus, UniProt P16087).
T1 construct: The FIV CA protein was expressed and purified mostly as described; made in house; host or cells: Escherichia coli BL21(DE3) pLysS
The data set can be described thus: Microscale thermophoresis (MST) binding to CA. How it is done:
The major disadvantage of this method is the interference of the compound with the measurement, either by autofluorescence or quenching.
We explored the binding affinity at two different times (10 and 60 min) to enhance the poetical interactions.
MTS experiments were performed according to the NanoTemper technologies protocol in a Monolith NT.115 (green/blue) instrument (NanoTemper Technologies, München, Germany). With this technique, the diffusion behavior of a labeled protein is measured when an infrared light excites the movement of the protein in capillaries. This behavior is the combination of two effects: the fast, local environment dependent responses of the fluorophore to the temperature jump and the slower diffusive thermophoresis fluorescence changes. It will be modified when the protein is complexed with increasing amounts of unlabeled partners, leading to titration curves that can be fit for Kd estimation. In practice, CA was labeled with the Monolith His-Tag Labeling Kit RED-tris-NTA (NanoTemper Technologies, München, Germany), as described by the manufacturer. The experiments were performed using 20% and 40% MST power and between 20–80% LED power at 24 °C. The MST traces were recorded using the standard parameters: 5 s MST power off, 30 s MST power on, and 5 s MST power off. The compounds were used at high concentrations (around 5 mM) in the bindings check assay with DMSO at 5% v/v. If the binding check was positive, then the affinity determination was performed with the same experimental settings, with serial 2× dilutions of the compound of interest.

Data set [2] deals with murine acute infection model of the Chagas disease. On the set-up: method as in PMID 26492824. The settings on record: 100 mg/kg body for 15 days; cited from earlier work.
The test system of the next data set is murine macrophages. Set-up: method as in PMID 28481276. Conditions: read-out: cytotoxicity IC50; cited from earlier work.
The next data set concerns Vero cell lines. The data set can be described thus: MTT cytotoxicity assay in Vero cells. In kind it is cell-based. Conditions: compound at 100µM, 48 h. As for the experimental part:
(§1) Vero cell lines (ATCC, Rockville, MD, USA) were cultivated in Dulbecco’s modified Eagles medium (DMEM) with 10% FCS in a humid atmosphere of 5% CO2 at 37 °C. Vero cells were seeded in 96-well plates at an initial density of 5 × 10^3 cells per well. J774.1 murine macrophage cells (ATCC, Manassas, VA, USA) were grown in DMEM culture milieu containing 4 mM L-glutamine and supplemented with 10% FCS. The cells were seeded in a 96-well plate (5 × 10^4 cells in 200 µL culture medium) and incubated at 37 °C in a 5% CO2 atmosphere for 48 h, to allow cell adhesion prior to drug testing. Both cell lines were exposed for 48 h (at 37 °C and 5% CO2) to the compounds (100 µM) or the solvent (0.4% DMSO) for the control, and additional controls (cells in medium) were used in each test. The cytotoxicity of the compounds was evaluated by MTT reduction assays. To proceed with the MTT assay, 20 μL of 3-(4,5-dimethylthiazol-2-yl)-2,5-diphenyl-2H-tetrazolium bromide (MTT) 5 mg/mL solution dissolved in 1× PBS was added to the wells and incubated for 4 h at 37 °C in a 5% CO2 controlled atmosphere. Next, the medium was aspirated and 100 μL of DMSO was added to each well and incubated at room temperature in the dark for 15 min with moderate orbital shaking. Optical density (OD) was read in a plate spectrophotometer (Thermo Scientific Varioskan® Flash Multimode, Waltham, MA, USA) at 570 and 690 nm wavelengths. Each experiment was performed in triplicate. For the statistical analyses, the GraphPad Prism 6 was used. Dunnett’s multiple comparison tests and Student’s T-test were used when we compared the averages of each condition with the control.

Data set [3] deals with J774.1 murine macrophage cells. The data set can be described thus: MTT cytotoxicity assay in J774.1 murine macrophages. In kind it is cell-based. Conditions: compound at 100µM, 48 h. How it is done:
as §1

Data set [4] has as its target T1, FIV CA (p24). The data set can be described thus: In vitro CA assembly assay (spectrophotometry / light scattering). It is filed as biochemical. Conditions: re-validated by light scattering and spectrophotometry; compounds at 25 or 50 µM. As for the experimental part:
Indeed, our initial assay used light scattering and could only monitor the assembly of one sample per experiment on 40 min kinetics. […] The use of the spectrometric technique to follow capsid assembly has been described for HIV [24] and is based on the detection of capsid assembly via the measurement of the increase of medium turbidity. The use of this technique to monitor FIV p24 assembly allowed us to use 384-well plates, reducing the volume of protein to 15 µL per sample and allowing a testing of 10 compounds, in duplicate, in 40 min. Moreover, in this format, the protein concentration (5 mg/mL) was enough to start the assembly without needing the high concentration of salt used in the HIV in vitro assembly assay. High salt concentration could cause a problem by interfering with the solvation and solubility of some molecules and the loss of their interaction with the target. The only limitation of this method using low volumes was the risk of introducing air bubbles in the reaction, which interfere negatively in the absorbance measurement. However, this issue was solved by a careful manipulation in the filling process of the plates.
With this spectrometric assembly assay, we were able to discriminate two different behaviors for compounds interfering with the assembly of FIV CA: the enhancement of the assembly or its inhibition. The enhancement of assembly is associated with an increase of the diameter of the assembled objects and could result in a disordered or altered capsid with a loss of function. Inhibition is the classical effect which would impair the formation of the capsid (Figure 3).
High nitrogen content heretocycles were not a good source of bioactive molecules. Some compounds with structural similarities with Bevirimat were also active, like some steroid compounds clustered in diverse families. […] We could not find active molecules in four families (i.e., selenium containing compounds, flavones, triazines, and indazoles).
The CA assembly assay was performed in a final volume of 50 μL in 384-well plates, with a final concentration of 5 mg/mL of purified recombinant FIV […] in 50 mM NaH2PO4 and 1 M NaCl, pH 7.4. Absorbance is measured at 340 nm every 30 s in a multiplate reader Varioskan^TM Flash Multimode Reader (Thermo Scientific^TM, Waltham, MA, USA) at 38 °C for 30 min. The compounds were tested at a fixed initial dose of 25 or 50 μM (at 0.5% DMSO v/v) by adding 1 µL of the concentrated ligand were added to the well before starting the measurement. The controls were CA at 5 mg/mL in only 0.5% DMSO v/v and CA without DMSO. The criteria to select active compounds were the observation of at least 50% of assembly inhibition at these doses, based on the reduction of the OD value at 340 nm at the plateau value compared to the controls.

The test system of data set [5] is five different enzymes from pathogen parasites. On the set-up: method as in PMID 20889239, PMID 28481276. Conditions: at 100 µM; cited from earlier work.
A further data set relates to HIV-1. Set-up: method as in PMID 12662926. The settings on record: at 100 µM; cited from earlier work.
A further data set deals with HIV-1 capsid protein. Set-up: method as in PMID 12662926. The settings on record: read-out: EC50 (affinity); cited from earlier work.
The mark [6] stands for this setting: 1 h (60 min), read-out: 1h EC50.

T1 sequence (P16087 136-357): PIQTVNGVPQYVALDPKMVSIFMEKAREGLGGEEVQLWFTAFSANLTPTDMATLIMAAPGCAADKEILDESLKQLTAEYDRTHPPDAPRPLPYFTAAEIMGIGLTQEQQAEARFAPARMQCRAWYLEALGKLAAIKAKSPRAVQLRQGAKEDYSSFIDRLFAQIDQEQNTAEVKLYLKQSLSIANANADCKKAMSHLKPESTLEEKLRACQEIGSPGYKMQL

For the compound `C=CCNC(=S)N/N=C/c1ccc2c(c1)c1cc(/C=N/NC(=S)NCC=C)ccc1n2CC(CC)CCCC` (centres unmarked) [compound 1368], the concentration giving a half-maximal response (EC50) at FIV CA (p24) [1] (setting [6]) is 35 µM.
With `O=C1/C(=C/C=C/c2ccccc2)CC/C1=C\C=C\c1ccccc1` [compound 1246], the toxic effect result in data set [2] is reported as “without toxic effect”. Moreover, in the data set with murine macrophages, the IC50 is > 100 µM. In addition, the EC50 amounted to 390 µM at FIV CA (p24) [1] (10 min, read-out: 10 min EC50) and 239 µM at FIV CA (p24) [1] (setting [6]). Further, the “VERO (grown %)” value in the data set on Vero cell lines is listed as 89±5%. In addition, in data set [3], the “Murine macrophages (grown %)” value was 79±9%. The “inhibition of the assembly” value against FIV CA (p24) [4] is on record as “inhibition of the assembly”. In data set [5], the inhibitory effects entry is reported as “did not display inhibitory effects”.
As to `O=C1C(=Cc2ccc([N+](=O)[O-])cc2)C(=O)N(CCc2ccccc2)S(=O)(=O)N1CCc1ccccc1` [compound 110], the concentration for a half-maximal effect (EC50) on FIV CA (p24) [1] (10 min, read-out: 10 min EC50) was 1100 µM; at FIV CA (p24) [1] (setting [6]), 789 µM.
For `O=C(O)c1cs/c(=N/N=C/C=C/C=C/c2cccs2)n1-c1ccccc1` [compound 1136], the EC50 was found to be 212 µM on FIV CA (p24) [1] (10 min, read-out: 10 min EC50) and 83 µM on FIV CA (p24) [1] (setting [6]). Further, the “VERO (grown %)” value in the data set on Vero cell lines came to 100±9%. Moreover, the “Murine macrophages (grown %)” value in [3] is on record as 95±7%. At FIV CA (p24) [4], the “inhibition of the assembly” value is reported as “inhibition of the assembly”. For the same compound, the inhibitory effects entry in [5] is recorded as “did not display inhibitory effects”.
`C=CCn1c(C)cs\c1=N/N=C/C=C/c1cccs1` [compound 1128]: the EC50 came out at 322 µM at FIV CA (p24) [1] (10 min, read-out: 10 min EC50) and 484 µM on FIV CA (p24) [1] (setting [6]).
On to `CC(/C=N/N1CCSCC1)=C\c1ccco1` [compound 878], for which the concentration for half-maximal inhibition (IC50) with murine macrophages was > 100 µM. For the same compound, the EC50 is 119 µM on FIV CA (p24) [1] (10 min, read-out: 10 min EC50); 166 µM at FIV CA (p24) [1] (1 h (60 min), Figure 5 panel A, read-out: 1h EC50); 166 µM on FIV CA (p24) [1] (setting [6]). Further, the “VERO (grown %)” value in the data set on Vero cell lines is recorded as 100±8%. Also, the “Murine macrophages (grown %)” value in [3] worked out at 98±8%. On FIV CA (p24) [4], the “inhibition of the assembly” value was “inhibition of the assembly”. The inhibitory effects entry in [5] is recorded as “did not display inhibitory effects”.
On to `C=CCN1C(=O)CS\C1=N/N=C/C=C/c1cccs1` [compound 1138], for which the EC50 came to 242 µM at FIV CA (p24) [1] (10 min, read-out: 10 min EC50) and 180 µM at FIV CA (p24) [1] (setting [6]).
Turning to `Cc1ccc(NC(=O)NCCSCc2ccc(CN(C)C)o2)cc1Cl` [CAP-1], the “activity in the in vitro infection assay” value in the data set with HIV-1 was “active”. Besides, in the data set on HIV-1 capsid protein, the concentration giving a half-maximal response (EC50) is 60 µM.
Consider `Nc1ccc(S(=O)(=O)c2ccc(Nc3c([N+](=O)[O-])c(Nc4ccc(S(=O)(=O)c5ccc(N)cc5)cc4)c4no[n+]([O-])c4c3[N+](=O)[O-])cc2)cc1` [compound 703], for which the concentration for a half-maximal effect (EC50) on FIV CA (p24) [1] (10 min, read-out: 10 min EC50) stood at 320 µM; on FIV CA (p24) [1] (setting [6]), 720 µM.
Regarding `C=CCn1c(C(=O)O)cs/c1=N\N=C\c1ccc(/C=N/N=c2\scc(C(=O)O)n2CC=C)cc1` [compound 1310], the concentration giving a half-maximal response (EC50) amounted to 655 µM at FIV CA (p24) [1] (10 min, read-out: 10 min EC50) and 670 µM at FIV CA (p24) [1] (setting [6]). The “VERO (grown %)” value in the data set on Vero cell lines stood at 95±7%. Moreover, in data set [3], the “Murine macrophages (grown %)” value worked out at 98±7%. The “inhibition of the assembly” value against FIV CA (p24) [4] is “inhibition of the assembly”. For the same compound, the inhibitory effects result in data set [5] is recorded as “did not display inhibitory effects”.
On to `C=CCn1c(C(=O)O)cs\c1=N/N=C/C=C/c1ccc(C)o1` [compound 789], for which the EC50 amounted to 640 µM on FIV CA (p24) [1] (10 min, read-out: 10 min EC50) and 655 µM on FIV CA (p24) [1] (setting [6]).
